Publication PMC4655872, “A quantitative assay to monitor HSV-1 ICP0 ubiquitin ligase activity in vitro” (Methods (San Diego, Calif.), 2015)

Tested on: T1, GST-ICP0.241
T1 construct: gene RL2; purified from bacterial extracts; assayed with His-tagged human E1 (UBA1) and UBE2D1
Assay: near-IR western blot of ICP0 auto-ubiquitination with methylated-ubiquitin, reconstituted E1/E2/E3
Assay type: biochemical, Human alphaherpesvirus 1
Details: non-specific divalent cation chelator, not a specific ligand; E1 and UBE2D1 present, 1 mM MgCl2, 5 mM ATP, pH 7.5, 37 °C, 5 min preincubation, 60 min reaction

Compound: O=C(O)CN(CCN(CC(=O)O)CC(=O)O)CC(=O)O [EDTA]
- IC50: 958 µM
